The values that follow are results of earlier work, collected in US11224220B2, “Surfactant composition based on glycine betaine amide salts, process for preparing same and uses thereof” (SURFACTGREEN, priority 2018, dated 2022).

The structures appear in SMILES notation.

For the data set the following is noted: prior art values (U.S. Pat. No. 7,829,521; Green Chem., 2008, 10, 310-320; WO 2013/188508 Table 5).

Consider `CCCCCCCCCCCCNC(=O)C[N+](C)(C)C` [glycine betaine laurylamide], for which the surface tension is on record as 50 mN/m. As for `CCCCCCCCCCCCNC(=O)C[N+](C)(C)C` [pure glycine betaine amide], the surface tension is listed as 38 mN/m.

Usually surface tension stands for the force per length acting along the surface.
